# Measured values from patent US20020052295A1, “Diacyl derivatives of propylene diamine having herbicidal activity” (priority 1999, published 2002).
# What was measured:
# [1] = tested on: DIGSA; experiment: Pre-emergence herbicidal activity on DIGSA (large crabgrass); type: in vivo, Digitaria sanguinalis; details: greenhouse
# Outline: (§1)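 GR80 values come from percent inhibition relative to untreated plants, rated roughly 14 days after planting and treating, with rates up to typically 1000 g/ha. Compound was sprayed onto the soil over freshly covered seeds as a dilution in 50:50 acetone/water; pots kept in greenhouse at 30/21° C. day/night after 0.64 cm overhead watering.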
# [2] = tested on: SORVU; experiment: Pre-emergence herbicidal activity on SORVU (shattercane); type: in vivo, Sorghum vulgare; details: lowest tested rate giving 80% or greater inhibition, approx. 14 days after planting and treating, greenhouse
# Outline: as §1
# [3] = tested on: PANDI; experiment: Pre-emergence herbicidal activity on PANDI (fall panicum); type: in vivo, Panicum dichotomiflorum; details: greenhouse
# Outline: as §1
# [4] = tested on: CONAR; experiment: Pre-emergence herbicidal activity on CONAR (field bindweed); type: in vivo, Convolvulus arvensis; details: greenhouse
# Outline: as §1
# [5] = tested on: POROL; experiment: Pre-emergence herbicidal activity on POROL (common purslane); type: in vivo, Portulaca oleracea; details: greenhouse
# Outline: as §1
# [6] = tested on: monocotyledonous species; experiment: Greenhouse post-emergence test in combination with glyphosate, monocotyledonous species; type: in vivo
# Excerpt: (§2) A pre-prepared topsoil mixture (described above) was placed in a pot and compacted to a depth of 1.0 to 1.25 cm from the top of the pot. Seeds of each of several monocotyledonous and dicotyledonous annual plant species were placed on top of the soil The seeds were covered with a mixture of 50% topsoil and 50% Rediearth™ in sufficient quantity to level-fill the pots. The pots were then placed on a greenhouse bench and subirrigated as needed until plants growing from the seeds had emerged and reached a suitable growth stage for post-emergence treatment, typically 9 to 14 days after planting.
# (§3) A known amount of each test compound dissolved or suspended in an appropriate organic solvent was diluted with a 50:50 mix of acetone and water and applied to the plants by spraying with a standard spray nozzle in a spray volume of 3,100 l/ha at a spray pressure of […] (30 psig). Control plants were not sprayed.
# (§4) After treatment the plants were placed in a greenhouse with a 30/21° C. day/night temperature regime and were subsequently watered as needed for growth. Approximately 14 days after treatment, the plants were observed and herbicidal efficacy recorded as percent inhibition by comparison with control plants.
# (§5) In a greenhouse post-emergence test conducted according to the procedure described hereinabove, R-2-fluoro-3-trifluoromethyl-N-[1-methyl-2-(3-trifluoromethyl)phenylcarbonylamino]ethylbenzamide (the compound of Example 13) was applied at 0, 64, 125 and 250 g/ha in combination with glyphosate isopropylammonium salt at 1000 g a.e./ha. The glyphosate herbicide alone gave 72% control of dicotyledonous species and 84% control of monocotyledonous species. […] At 250 g/ha, addition of the compound of Example 13 gave 93% control of dicotyledonous species, but reduced control of monocotyledonous species to 73%.
# [7] = tested on: CIRAR; experiment: Pre-emergence herbicidal activity on CIRAR (canada thistle, seedling); type: in vivo, Cirsium arvense; details: greenhouse
# Outline: as §1
# [8] = tested on: CHEAL; experiment: Pre-emergence herbicidal activity on CHEAL (common lambsquarters); type: in vivo, Chenopodium album; details: greenhouse
# Outline: as §1
# [9] = tested on: SETFA; experiment: Pre-emergence herbicidal activity on SETFA (giant foxtail); type: in vivo, Setaria faberi; details: greenhouse
# Outline: as §1
# [10] = tested on: AMARE; experiment: Pre-emergence herbicidal activity on AMARE (redroot pigweed); type: in vivo, Amaranthus retroflexus; details: greenhouse
# Outline: as §1
# [11] = tested on: monocotyledonous and dicotyledonous annual plant species; experiment: Greenhouse pre-emergence test, all species of the test taken together; type: in vivo
# Excerpt: All such uses, and the biological activity enabling such uses, are embraced by the term “herbicidal” herein. […] Where herbicidal activity was evident but 80% inhibition was not achieved at the highest rate tested (typically 1000 g/ha), an asterisk (*) is shown in the following tables. Herbicidal activity evident in the form of symptoms of phytotoxicity, in the absence of at least 80% inhibition at any rate, is indicated in the tables by “phyto”. A blank cell in the following tables indicates no herbicidal or phytotoxic response at any rate tested.
# The pre-emergence tests were conducted by the following procedure. Topsoil was sieved to pass through a 1.27 cm screen. Fertilizer was added to the topsoil and the mixture was then sterilized by heating. The topsoil mixture was placed in a pot and compacted to a depth of 1.0 to 1.25 cm from the top of the pot. Seeds of each of several monocotyledonous and dicotyledonous annual plant species were placed on top of the soil. Additional soil was subsequently placed over the seeds to level-fill the pot. A known amount of each test compound dissolved or suspended in an appropriate organic solvent was diluted with a 50:50 mix of acetone and water and applied to the surface of the soil. After treatment the plants were placed in a greenhouse with a 30/21° C. day/night temperature regime where they received 0.64 cm of overhead irrigation. All subsequent watering consisted of a light overhead mist and/or subirrigation as needed for germination and growth.
# Pre-emergence herbicidal activity of the compound of Example 5, a racemic mixture of R- and S-enantiomers of N,N′-(1,2-propanediylbis)-3-(trifluoromethyl) benzamide, was compared with that of the individual R- and S-enantiomers, the compounds of Examples 5a and 5b respectively. The procedure was exactly as described above. Rates tested were 1000, 650, 300, 200, 100, 65, 30 and 10 g/ha.
# In a greenhouse pre-emergence test conducted according to the procedure described hereinabove, R—N,N′-(1,2-propanediylbis)-3-(trifluoromethyl)benzamide (the compound of Example 5a) was applied at 200 g/ha and acetochlor was applied at 100 g/ha, both individually and in combination.
# In the same greenhouse pre-emergence test, R-2-fluoro-3-trifluoromethyl-N-[1-methyl-2-(3-trifluoromethyl)phenylcarbonylamino]ethylbenzamide (the compound of Example 13) was applied at 100 g/ha and acetochlor was applied at 100 g/ha, both individually and in combination.
# [12] = tested on: PANMI; experiment: Pre-emergence herbicidal activity on PANMI (wild proso millet); type: in vivo, Panicum miliaceum; details: greenhouse
# Outline: as §1
# [13] = tested on: dicotyledonous species; experiment: Greenhouse post-emergence test in combination with glyphosate, dicotyledonous species; type: in vivo
# Excerpt: as §2, §3, §4, §5
# [14] = tested on: ECHCG; experiment: Pre-emergence herbicidal activity on ECHCG (barnyardgrass); type: in vivo, Echinochloa crus-galli; details: lowest tested rate giving 80% or greater inhibition, approx. 14 days after planting and treating, greenhouse
# Outline: as §1
# [15] = tested on: BRAPP; experiment: Pre-emergence herbicidal activity on BRAPP (broadleaf signalgrass); type: in vivo, Brachiaria platyphylla; details: greenhouse
# Outline: as §1
# [16] = tested on: SOLNI; experiment: Pre-emergence herbicidal activity on SOLNI (black nightshade); type: in vivo, Solanum nigrum; details: greenhouse
# Outline: as §1
# [17] = tested on: SORHA; experiment: Pre-emergence herbicidal activity on SORHA (johnsongrass, seedling); type: in vivo, Sorghum halepense; details: greenhouse
# Outline: as §1
# [18] = tested on: ABUTH; experiment: Pre-emergence herbicidal activity on ABUTH (velvetleaf); type: in vivo, Abutilon theophrasti; details: greenhouse
# Outline: as §1
# [19] = tested on: DATST; experiment: Pre-emergence herbicidal activity on DATST (jimsonweed); type: in vivo, Datura stramonium; details: greenhouse
# Outline: as §1
# [20] = lowest tested rate giving 80% or greater inhibition, approx. 14 days after planting and treating
# [21] = Example 13 at 64 g/ha in combination with glyphosate isopropylammonium salt 1000 g a.e./ha
# [22] = Example 13 at 125 g/ha in combination with glyphosate isopropylammonium salt 1000 g a.e./ha
# [23] = Example 13 at 250 g/ha in combination with glyphosate isopropylammonium salt 1000 g a.e./ha
smiles,measurement,setting,value
"C[C@H](CNC(=O)c1cccc(C(F)(F)F)c1)NC(=O)c1cccc(C(F)(F)F)c1F [Example 13, R-2-fluoro-3-trifluoromethyl-N-[1-methyl-2-(3-trifluoromethyl)phenylcarbonylamino]ethylbenzamide]","Percent control by pre-emergence application, DIGSA",[1]; applied alone at 100 g/ha,43%
same,Pre-emergence activity (GR80) on DIGSA,[1]; [20],125 g/ha
same,Pre-emergence activity (GR80) on SORVU,[2],1000 g/ha
same,"Percent control by pre-emergence application, PANDI",[3]; applied alone at 100 g/ha,40%
same,Pre-emergence activity (GR80) on PANDI,[3]; [20],250 g/ha
same,"Percent control by pre-emergence application, CONAR",[4]; applied alone at 100 g/ha,38%
same,Pre-emergence activity (GR80) on CONAR,[4]; [20],750 g/ha
same,"Percent control by pre-emergence application, POROL",[5]; applied alone at 100 g/ha,100%
same,Pre-emergence activity (GR80) on PORAL,[5]; [20],64 g/ha
same,control of monocotyledonous species,[6]; [21],89%
same,control of monocotyledonous species,[6]; [22],89%
same,control of monocotyledonous species,[6]; [23],73%
same,"Percent control by pre-emergence application, CIRAR",[7]; applied alone at 100 g/ha,25%
same,Pre-emergence activity (GR80) on CIRAR,[7]; [20],64 g/ha
same,"Percent control by pre-emergence application, CHEAL",[8]; applied alone at 100 g/ha,95%
same,Pre-emergence activity (GR80) on CHEAL,[8]; [20],64 g/ha
same,"Percent control by pre-emergence application, SETFA",[9]; applied alone at 100 g/ha,25%
same,Pre-emergence activity (GR80) on SETFA,[9]; [20],125 g/ha
same,"Percent control by pre-emergence application, AMARE",[10]; applied alone at 100 g/ha,86%
same,Pre-emergence activity (GR80) on AMARE,[10]; [20],64 g/ha
same,herbicidal activity of the combination compared with expectation,"[11]; Example 13 100 g/ha + acetochlor 100 g/ha, at least on ABUTH, DATST, SOLNI and PANMI",greater than expected herbicidal activity
same,number of the 14 species showing >85% control,[11]; Example 13 100 g/ha in combination with acetochlor 100 g/ha,10
same,number of the 14 species showing >85% control,[11]; Example 13 alone at 100 g/ha,3
same,"Percent control by pre-emergence application, PANMI",[12]; applied alone at 100 g/ha,5%
same,Pre-emergence activity (GR80) on PANMI,[12]; [20],500 g/ha
same,control of dicotyledonous species,[13]; [21],85%
same,control of dicotyledonous species,[13]; [22],95%
same,control of dicotyledonous species,[13]; [23],93%
same,Pre-emergence activity (GR80) on ECHCG,[14],500 g/ha
same,"Percent control by pre-emergence application, BRAPP",[15]; applied alone at 100 g/ha,4%
same,Pre-emergence activity (GR80) on BRAPP,[15]; [20],500 g/ha
same,"Percent control by pre-emergence application, SOLNI",[16]; applied alone at 100 g/ha,45%
same,Pre-emergence activity (GR80) on SOLNI,[16]; [20],125 g/ha
same,"Percent control by pre-emergence application, SORHA",[17]; applied alone at 100 g/ha,7%
same,Pre-emergence activity (GR80) on SORHA,[17]; [20],500 g/ha
same,"Percent control by pre-emergence application, ABUTH",[18]; applied alone at 100 g/ha,2%
same,Pre-emergence activity (GR80) on ABUTH,[18]; [20],250 g/ha
same,"Percent control by pre-emergence application, DATST",[19]; applied alone at 100 g/ha,12%
same,Pre-emergence activity (GR80) on DATST,[19]; [20],125 g/ha
